Reference: ChEMBL document CHEMBL4814014, “Identification of novel androgen receptor degrading agents to treat advanced prostate cancer” (Eur J Med Chem, 2021)

What was measured:
DU-145 = assay: Antiproliferative activity against AR-negative human DU145 cells assessed as reduction in cell viability incubated for 3 days by MTT assay; details: DU-145, 72 h
CWR22R = assay: Antiproliferative activity against AR-positive human 22RV1 cells assessed as reduction in cell viability incubated for 3 days by MTT assay; details: 22Rv1, 72 h
LNCaP = assay: Antiproliferative activity against AR-positive human LNCaP cells assessed as reduction in cell viability incubated for 3 days by MTT assay; details: 72 h

| IC50 (DU-145) [µM] | IC50 (LNCaP) [µM] | SMILES | IC50 (CWR22R) [µM] |
| --- | --- | --- | --- |
| 14.7 | 15.1 | C=CC(=O)Nc1ccc(-c2cc(=O)c3c(O)cc(OC)c(OC(C)C)c3o2)cc1 | 5.8 |
| 45.3 | 17.6 | CNC(=O)c1ccc(N2C(=S)N(c3ccc(C#N)c(C(F)(F)F)c3)C(=O)C2(C)C)cc1F [ENZALUTAMIDE] | 42.3 |
